Assay results: ChEMBL document CHEMBL1201862, “PubChem BioAssay data set” (2004)
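Following 48 hours of exposure in 96-well plates, responses at five concentrations were used to interpolate endpoints linearly. GI50 = concentration required for 50% inhibition of growth.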 The source made the active and inactive calls. No stated cut-off is given here; in the data, active = GI50 up to about 1.1 µM and inactive = higher.

Legend:
Assay in all cases: NCI-60 cell line screen, 48 h
NCI-H23 = tested on: NCI-H23
COLO 205 = tested on: COLO 205
HL-60 = tested on: HL-60
M14 = tested on: M14
SK-MEL-28 = tested on: SK-MEL-28
CCRF-CEM = tested on: CCRF-CEM
HCT-15 = tested on: HCT-15
HOP-92 = tested on: HOP-92
SN12C = tested on: SN12C
BT-549 = tested on: BT-549
OVCAR-5 = tested on: OVCAR-5
SR = tested on: SR
OVCAR-4 = tested on: OVCAR-4
K562 = tested on: K562
IGROV-1 = tested on: IGROV-1
KM12 = tested on: KM12
NCI/ADR-RES = tested on: NCI/ADR-RES
SK-OV-3 = tested on: SK-OV-3
NCI-H226 = tested on: NCI-H226

Structure (SMILES)	GI50 (NCI-H23)	GI50 (COLO 205)	GI50 (HL-60)	GI50 (M14)	GI50 (SK-MEL-28)	GI50 (CCRF-CEM)	GI50 (HCT-15) [µM]	GI50 (HOP-92)	GI50 (SN12C)	GI50 (BT-549)	GI50 (OVCAR-5)	GI50 (SR)	GI50 (OVCAR-4)	GI50 (K562)	GI50 (IGROV-1)	GI50 (KM12)	GI50 (NCI/ADR-RES)	GI50 (SK-OV-3)	GI50 (NCI-H226)
C[C@@H]1CC[C@]2(C(=O)O)CC[C@]3(C)C(=CC[C@@H]4[C@@]5(C)CC[C@H](O)C(C)(C)[C@@H]5CC[C@]43C)[C@@H]2[C@]1(C)O [POMOLIC ACID]	18.7 µM (inactive)	16.4 µM (inactive)	4.35 µM (inactive)	2.98 µM (inactive)	13.6 µM (inactive)	10.3 µM (inactive)	10.6	4.45 µM (inactive)	13.6 µM (inactive)	14.4 µM (inactive)	17.7 µM (inactive)	13.9 µM (inactive)	16.8 µM (inactive)	6.49 µM (inactive)	16.5 µM (inactive)	12.4 µM (inactive)	15.5 µM (inactive)	17.9 µM (inactive)	
CCN(CC)CCNc1ccc2ncn3c4c(OC)cccc4c(=O)c1c23	5.46 µM (inactive)	1.91 µM (inactive)		6.34 µM (inactive)	6.47 µM (inactive)	1.73 µM (inactive)	3.85	4.27 µM (inactive)	2.93 µM (inactive)	> 10 µM (inactive)		3.4 µM (inactive)	2.93 µM (inactive)	2.67 µM (inactive)	5.41 µM (inactive)	4.26 µM (inactive)	1.79 µM (inactive)	10.9 µM (inactive)	5.86 µM (inactive)
O=C(Nc1ccc2nc(-c3ccccc3)cn2c1)Oc1ccccc1	99.1 µM (inactive)	48.6 µM (inactive)	30.9 µM (inactive)	39.2 µM (inactive)	> 100 µM (inactive)	39.7 µM (inactive)	45.1	> 100 µM (inactive)	66.8 µM (inactive)	> 100 µM (inactive)	78.2 µM (inactive)	19 µM (inactive)	78.3 µM (inactive)	34.6 µM (inactive)	57.3 µM (inactive)	24.9 µM (inactive)	33.8 µM (inactive)	> 100 µM (inactive)	> 100 µM (inactive)
COc1cc(C2SCC(=O)N2c2ccc(-n3c(-c4ccccc4)nc4ccccc4c3=O)cc2)ccc1O (centres undefined)	> 100 µM (inactive)	> 100 µM (inactive)	> 100 µM (inactive)	> 100 µM (inactive)	> 100 µM (inactive)	27.2 µM (inactive)	64.1	13.3 µM (inactive)		> 100 µM (inactive)	> 100 µM (inactive)	26 µM (inactive)	65.6 µM (inactive)	> 100 µM (inactive)	> 10 µM (inactive)	34.4 µM (inactive)	34.3 µM (inactive)	82 µM (inactive)	5.01 µM (inactive)
CC(C)NC(=O)OCc1c(COC(=O)NC(C)C)n(C)c2c1ccc1cc(Cl)c(Cl)cc12	12.8 µM (inactive)	10.9 µM (inactive)		15.5 µM (inactive)		3.33 µM (inactive)	12.7	11.4 µM (inactive)		15.2 µM (inactive)	15.4 µM (inactive)	2.64 µM (inactive)	20.1 µM (inactive)	4.44 µM (inactive)	10.5 µM (inactive)		15.9 µM (inactive)	21.6 µM (inactive)	3.78 µM (inactive)
c1cc(-c2cnc(-c3ccc4c(c3)CCCO4)o2)ccn1	15.5 µM (inactive)	18.5 µM (inactive)	4.33 µM (inactive)	18.6 µM (inactive)	18.1 µM (inactive)	5.98 µM (inactive)	16.2	22.9 µM (inactive)	18.5 µM (inactive)	15.2 µM (inactive)	13.6 µM (inactive)	0.524 µM (active)	14.1 µM (inactive)	5.05 µM (inactive)	17.9 µM (inactive)		17.1 µM (inactive)	20.3 µM (inactive)	15.3 µM (inactive)
Cc1ccc(S(=O)(=O)[C@@H](Cl)[C@H]2N=C(Cl)NN=C2c2ccccc2)cc1	20.6 µM (inactive)	26.9 µM (inactive)		21.2 µM (inactive)	19.4 µM (inactive)	20.3 µM (inactive)	22.2	23 µM (inactive)	21.7 µM (inactive)	23.9 µM (inactive)	85.9 µM (inactive)	27.2 µM (inactive)	13.9 µM (inactive)	29.5 µM (inactive)	21.8 µM (inactive)	22.6 µM (inactive)	21.4 µM (inactive)	32.6 µM (inactive)	26.8 µM (inactive)
CCCCCCCCCCCCCCCCCC(=O)Nc1ccn(C2CCC(COP(=O)(O)O)O2)c(=O)n1 (centres undefined)	> 100 µM (inactive)	> 100 µM (inactive)		> 100 µM (inactive)	> 100 µM (inactive)	> 100 µM (inactive)	> 100	> 100 µM (inactive)	> 100 µM (inactive)	> 100 µM (inactive)	> 100 µM (inactive)	> 100 µM (inactive)	> 100 µM (inactive)	> 100 µM (inactive)	> 100 µM (inactive)	> 100 µM (inactive)	> 100 µM (inactive)	> 100 µM (inactive)	> 100 µM (inactive)
Cc1sc2nc3n(c(=O)c2c1C)N=CN(c1ccccc1)C3	> 100 µM (inactive)	> 100 µM (inactive)		> 100 µM (inactive)	> 100 µM (inactive)	> 100 µM (inactive)	> 100	23.7 µM (inactive)	> 100 µM (inactive)	> 100 µM (inactive)	> 100 µM (inactive)	> 100 µM (inactive)	30.1 µM (inactive)	> 100 µM (inactive)	> 100 µM (inactive)	> 100 µM (inactive)	> 100 µM (inactive)	> 100 µM (inactive)	> 100 µM (inactive)
O=C(NO)NCCCl	> 100 µM (inactive)	> 100 µM (inactive)	> 100 µM (inactive)	> 100 µM (inactive)		> 100 µM (inactive)	> 100	> 100 µM (inactive)	> 100 µM (inactive)	> 100 µM (inactive)	> 100 µM (inactive)	> 100 µM (inactive)	> 100 µM (inactive)	> 100 µM (inactive)	> 100 µM (inactive)	> 100 µM (inactive)	> 100 µM (inactive)	> 100 µM (inactive)	> 100 µM (inactive)
COC(=O)c1ccc(/C=C2\Oc3ccccc3C2=O)cc1	> 100 µM (inactive)	> 100 µM (inactive)	16.4 µM (inactive)	> 100 µM (inactive)	> 100 µM (inactive)	58.1 µM (inactive)	> 100		> 100 µM (inactive)	> 100 µM (inactive)		> 100 µM (inactive)	> 100 µM (inactive)	> 10 µM (inactive)	> 100 µM (inactive)	> 100 µM (inactive)	> 100 µM (inactive)	> 100 µM (inactive)	> 100 µM (inactive)
NCC1CCCCC1.O=C(O)NCC1CCCCC1	23.3 µM (inactive)		15.6 µM (inactive)	36.6 µM (inactive)	38 µM (inactive)	15.7 µM (inactive)	23.8	3.95 µM (inactive)	12.5 µM (inactive)	26.5 µM (inactive)	31.9 µM (inactive)	23.4 µM (inactive)	35.6 µM (inactive)	6.28 µM (inactive)	9.12 µM (inactive)	12.1 µM (inactive)	26 µM (inactive)		17.9 µM (inactive)
N=c1oc2ccc3ccccc3c2cc1-c1nc(O)c2ccccc2n1		> 100 µM (inactive)	8.73 µM (inactive)	25.9 µM (inactive)	95.7 µM (inactive)		19.9	15.1 µM (inactive)	74 µM (inactive)	15.1 µM (inactive)	96.6 µM (inactive)	26.5 µM (inactive)	20.6 µM (inactive)	19.7 µM (inactive)	16 µM (inactive)	11 µM (inactive)	14.2 µM (inactive)	19.9 µM (inactive)	37.1 µM (inactive)
CCOC(=O)C1CCC/C1=N\NC(=N)N.Cc1cc(O)c(C(C)C)cc1S(=O)(=O)O (centres undefined)	> 100 µM (inactive)	> 100 µM (inactive)	> 100 µM (inactive)	> 100 µM (inactive)	> 100 µM (inactive)	> 100 µM (inactive)	> 100		> 100 µM (inactive)	> 100 µM (inactive)	> 100 µM (inactive)	> 100 µM (inactive)	> 100 µM (inactive)	> 100 µM (inactive)	> 100 µM (inactive)	> 100 µM (inactive)	> 100 µM (inactive)	> 100 µM (inactive)	> 100 µM (inactive)
C=CCN1CC2CN=NC2(C#N)C1 (centres undefined)	> 100 µM (inactive)	> 100 µM (inactive)	> 100 µM (inactive)		> 100 µM (inactive)	> 100 µM (inactive)	> 100	2.33 µM (inactive)	> 100 µM (inactive)	> 100 µM (inactive)	> 100 µM (inactive)	> 100 µM (inactive)	> 100 µM (inactive)	> 100 µM (inactive)	> 100 µM (inactive)	> 100 µM (inactive)	> 100 µM (inactive)		> 100 µM (inactive)
O=C1/C(=C\c2ccc([N+](=O)[O-])cc2)N(S(=O)(=O)c2ccccc2)c2ncccc21	13.7 µM (inactive)	19.5 µM (inactive)	2.18 µM (inactive)	17.4 µM (inactive)	20.7 µM (inactive)	2.98 µM (inactive)	15.7		16.9 µM (inactive)	18.3 µM (inactive)		3.33 µM (inactive)		3.55 µM (inactive)	18.3 µM (inactive)	20.3 µM (inactive)	23.9 µM (inactive)	0.0212 µM (active)	22.9 µM (inactive)
